Data: patent EP3693362B1, “PARASITIC PLANT GERMINATION REGULATOR” (National University Corporation Tokai National Higher …, priority 2017, dated 2019)

Columns and labels:
Type in all cases: in vivo
Striga hermonthica = assay: Parasitic plant germination induction test (Striga hermonthica seeds); conditions: in the dark for 2 days; for Germination rate 0.1 nM: compound concentration 0.1 nM; for Germination rate 1 nM: compound concentration 1 nM; for Germination rate 10 nM: compound concentration 10 nM
Procedure: (§1) A parasitic plant germination induction test was conducted using the compounds synthesized in Example 1 as test compounds. The seeds of a parasitic plant (Striga hermonthica, Orobanche minor, or Phelipanche aegyptiaca) were suspended in sterilized ultrapure water, and this was dispensed in an amount of 100 µL each (containing about 20 seeds) into a 96-well plate. The test compounds or control compounds (Comparison Compound 1 or synthetic Strigolactone (GR^24: Comparison Compound 2)) dissolved in DMSO were individually added thereto to a final concentration of these compounds of 10 nM to 1 fM (1 × 10^-8 to 1 × 10^-15 M), and allowed to stand in the dark for 2 days. The presence or absence of germination was observed using a microscope, and the germination rate (i.e., number of germinated seeds/total number of seeds) was measured. The higher the germination rate in the parasitic plant germination induction test, or the higher the germination rate at lower concentration, the higher the Striga germination inducing activity.
(§2) In Tables 1 to 6, the concentrations (10 nM, 1 nM, and 0.1 nM) represent compound concentrations. In Tables 1-6, the evaluation criteria for the compounds are as follows: • ++: germination rate of 20% or more • +: germination rate of 5% or more and less than 20% • -: germination rate of less than 5% Table 1

Phelipanche aegyptiaca = assay: Parasitic plant germination induction test (Phelipanche aegyptiaca seeds); conditions: in the dark for 2 days
Procedure: as §1, §2

Orobanche minor = assay: Parasitic plant germination induction test (Orobanche minor seeds); conditions: in the dark for 2 days
Procedure: as §1, §2

| Molecule | Germination rate 0.1 nM (Striga hermonthica) | Germination rate 1 nM (Striga hermonthica) | Germination rate 10 nM (Striga hermonthica) | Germination rate 1 nM (Phelipanche aegyptiaca; compound concentration 1 nM) | Germination rate 10 nM (Phelipanche aegyptiaca; compound concentration 10 nM) | Germination rate 0.1 nM (Orobanche minor; compound concentration 0.1 nM) | Germination rate 1 nM (Orobanche minor; compound concentration 1 nM) | Germination rate 10 nM (Orobanche minor; compound concentration 10 nM) |
| --- | --- | --- | --- | --- | --- | --- | --- | --- |
| COc1ccc(S(=O)(=O)N2CCN(C(=O)OC3C=C(C)C(=O)O3)CC2)cc1 (stereo not shown) [Compound 2] | ++ (germination rate of 20% or more) | ++ (germination rate of 20% or more) | ++ (germination rate of 20% or more) | – | – | – | – | – |
| CCCCCOc1ccc(S(=O)(=O)N2CCN(C(=O)OC3C=C(C)C(=O)O3)CC2)cc1 (stereo not shown) [Compound 5] | ++ (germination rate of 20% or more) | ++ (germination rate of 20% or more) | ++ (germination rate of 20% or more) | – | – | – | – | – |
| CCc1ccc(S(=O)(=O)N2CCN(C(=O)OC3C=C(C)C(=O)O3)CC2)cc1 (stereo not shown) [Compound 6] | ++ (germination rate of 20% or more) | ++ (germination rate of 20% or more) | ++ (germination rate of 20% or more) | – | – | – | – | – |
| CCCCCc1ccc(S(=O)(=O)N2CCN(C(=O)OC3C=C(C)C(=O)O3)CC2)cc1 (stereo not shown) [Compound 7] | ++ (germination rate of 20% or more) | ++ (germination rate of 20% or more) | ++ (germination rate of 20% or more) | – | – | – | – | – |
| CC1=CC(OC(=O)N2CCN(S(=O)(=O)c3ccc(C(F)(F)F)cc3)CC2)OC1=O (stereo not shown) [Compound 8] | ++ (germination rate of 20% or more) | ++ (germination rate of 20% or more) | ++ (germination rate of 20% or more) | – | – | – | – | – |
| CC1=CC(OC(=O)N2CCN(S(=O)(=O)c3cccc(Br)c3)CC2)OC1=O (stereo not shown) [Compound 9] | ++ (germination rate of 20% or more) | ++ (germination rate of 20% or more) | ++ (germination rate of 20% or more) | – | – | – | – | – |
| COc1ccc(S(=O)(=O)N2CCN(C(=O)OC3C=CC(=O)O3)CC2)cc1 (stereo not shown) [Compound 10] | - (germination rate of less than 5%) | ++ (germination rate of 20% or more) | ++ (germination rate of 20% or more) | – | – | – | – | – |
| CCOc1ccc(S(=O)(=O)N2CCN(C(=O)OC3C=CC(=O)O3)CC2)cc1 (stereo not shown) [Compound 11] | + (germination rate of 5% or more and less than 20%) | ++ (germination rate of 20% or more) | ++ (germination rate of 20% or more) | – | – | – | – | – |
| CCCOc1ccc(S(=O)(=O)N2CCN(C(=O)OC3C=CC(=O)O3)CC2)cc1 (stereo not shown) [Compound 12] | + (germination rate of 5% or more and less than 20%) | ++ (germination rate of 20% or more) | ++ (germination rate of 20% or more) | – | – | – | – | – |
| CCCCCOc1ccc(S(=O)(=O)N2CCN(C(=O)OC3C=CC(=O)O3)CC2)cc1 (stereo not shown) [Compound 14] | - (germination rate of less than 5%) | ++ (germination rate of 20% or more) | ++ (germination rate of 20% or more) | – | – | – | – | – |
| Cc1ccc(S(=O)(=O)N2CCN(C(=O)OC3C=CC(=O)O3)CC2)cc1 (stereo not shown) [Compound 15] | - (germination rate of less than 5%) | + (germination rate of 5% or more and less than 20%) | ++ (germination rate of 20% or more) | – | – | – | – | – |
| CCc1ccc(S(=O)(=O)N2CCN(C(=O)OC3C=CC(=O)O3)CC2)cc1 (stereo not shown) [Compound 16] | – | ++ (germination rate of 20% or more) | ++ (germination rate of 20% or more) | – | – | – | – | – |
| CCCCCc1ccc(S(=O)(=O)N2CCN(C(=O)OC3C=CC(=O)O3)CC2)cc1 (stereo not shown) [Compound 17] | + (germination rate of 5% or more and less than 20%) | + (germination rate of 5% or more and less than 20%) | ++ (germination rate of 20% or more) | – | – | – | – | – |
| O=C1C=CC(OC(=O)N2CCN(S(=O)(=O)c3ccc(C(F)(F)F)cc3)CC2)O1 (stereo not shown) [Compound 18] | - (germination rate of less than 5%) | + (germination rate of 5% or more and less than 20%) | ++ (germination rate of 20% or more) | – | – | – | – | – |
| O=C1C=CC(OC(=O)N2CCN(S(=O)(=O)c3cccc(Br)c3)CC2)O1 (stereo not shown) [Compound 19] | - (germination rate of less than 5%) | ++ (germination rate of 20% or more) | ++ (germination rate of 20% or more) | – | – | – | – | – |
| O=C1C=CC(OC(=O)N2CCN(S(=O)(=O)c3ccc([N+](=O)[O-])cc3)CC2)O1 (stereo not shown) [Compound 20] | - (germination rate of less than 5%) | ++ (germination rate of 20% or more) | ++ (germination rate of 20% or more) | – | – | – | – | – |
| CC(C)(C)c1ccccc1OCC1CN(C(=O)OC2C=CC(=O)O2)CCO1 (stereo not shown) [Reference Compound 30] | - (germination rate of less than 5%) | ++ (germination rate of 20% or more) | ++ (germination rate of 20% or more) | – | – | – | – | – |
| GR^24 [Comparison Compound 2, reference compound] | - (germination rate of less than 5%) | ++ (germination rate of 20% or more) | ++ (germination rate of 20% or more) | - (germination rate of less than 5%) | ++ (germination rate of 20% or more) | - (germination rate of less than 5%) | + (germination rate of 5% or more and less than 20%) | ++ (germination rate of 20% or more) |
